Experimental data reported in US7186825B2, “Conformationally restricted polyamine analogs as disease therapies” (Cellgate, Inc., priority 1999, dated 2007).
Read-outs that look alike come from different tables or passages of the source.

Tests used:
Format in all cases: cell-based
[1] = system: human lung cancer cells A549; experiment: MTT assay, survival/growth of cultured human lung cancer cells A549; conditions: for concentration needed for 50% growth inhibition (ID50) / IC50: Table 3, A549; for EC50: figure legends, survival of cultured A549 cells, MTT, six days after drug treatment, read-out: ED50 (the source's name); for IC50: read-out: concentration needed for 50% growth inhibition (ID50)
Description: (§1) As shown in Table 3 and FIGS. 1–32, several novel conformationally restricted polyamine analogs were tested for anti-proliferative properties against cancer cells.
(§2) Human breast cancer cell line MCF7 was grown in Richter's Improved Modified Eagle's Medium supplemented with 10% fetal bovine serum (FBS) and 2.2 g/L sodium bicarbonate. Human brain tumor cell line U251 MG-NCI was grown in Dulbecco's Modified Eagle's Medium supplemented with 10% FBS. Human lung cancer cell line A549 was grown in Ham's F-12K medium (Cellgro, Mediatech, Inc., VA), supplemented with 10% FBS and 2 mM L-glutamine. Human colon cancer cell line HT29 was cultured in McCoy's 5A medium (Gibco, BRL, Gaithersburg, Md.) supplemented with 10% FBS. Human prostate cancer cell lines PC-3, LNCAP and DuPro were grown in RPMI 1640 Medium (Cellgro, Mediatech, Inc., VA) supplemented with 10% FBS. Another human prostate cancer cell line DU145 was grown in Dulbecco's Modified Eagle's Medium (Gibco, BRL, Gaithersburg, Md.) supplemented with 5% FBS. The A549, MCF7, PC3, LNCAP and DuPro cell lines were cultured in 100 units/mL penicillin and 100 μg/mL streptomycin. HT29 and U251MG cell lines were grown in 50 μg/mL gentamycin (Gibco, BRL, Gaithersburg, Md.). DU145 cell line was maintained in 1% antibitic-antimycotic solution (Sigma, St. Louis, Mo.). The cell cultures were maintained at 37° C. in 5% CO2/95% humidified air. DuPro cells were obtained from M. Eileen Dolan, University of Chicago. All other cells are available from the American Type Culture Collection, Rockville, Md.
(§3) A conventional MTT assay was used to evaluate percent cell survival. Exponentially growing monolayer cells were plated in 96-well plates at a density of 500 cells per well and allowed to grow for 24 hours. Serial dilutions of the drugs were added to the wells. Six days after drug treatment, 25 μl of MTT solution (5 mg/ml) was added to each well and incubated for 4 hours at 37° C. Then 100 μl of lysis buffer (20% sodium dodecyl sulfate, 50% DMF, and 0.8% acetic acid, pH 4.7) was added to each well and incubated for an additional 22 hours. A microplate reader (“EMAX”-brand, Molecular Devices, Sunnyvale, Calif.) set at 570 nm was used to determine the optical density of the cultures. Results are expressed as a ratio of the optical density in drug-treated wells to the optical density in wells treated with vehicle only.

[2] = system: human prostate cancer cells PC3; experiment: MTT assay, survival/growth of cultured human prostate cancer cells PC3; conditions: for EC50: figure legends, survival of cultured PC3 cells, MTT, six days after drug treatment, read-out: ED50 (the source's name); for IC50: read-out: concentration needed for 50% growth inhibition (ID50), Table 3, PC-3
Description: as §2, §3
(§4) Using the protocols of Example 2, the porphyrin-polyamine conjugates were tested for activity in vitro in various cancer cell lines.

[3] = system: human brain tumor cells U251 MG NCI; experiment: MTT assay, survival/growth of cultured human brain tumor cells U251 MG NCI; conditions: for EC50: figure legends, survival of cultured U251 MG NCI cells, MTT, six days after drug treatment, read-out: ED50 (the source's name); for IC50: Table 3, U251MG
Description: as §2, §3

[4] = system: human prostate cancer cells DUPRO; experiment: MTT assay, survival/growth of cultured human prostate cancer cells DUPRO
Description: as §2, §3, §4

[5] = system: human breast cancer cells MCF7; experiment: MTT assay, survival/growth of cultured human breast cancer cells MCF7; conditions: for IC50: read-out: concentration needed for 50% growth inhibition (ID50), Table 3, MCF7; for EC50: figure legends, survival of cultured MCF7 cells, MTT, six days after drug treatment, read-out: ED50 (the source's name)
Description: as §1, §2, §3

[6] = system: human prostate cancer cells DU145; experiment: MTT assay, survival/growth of cultured human prostate cancer cells DU145; conditions: for EC50: figure legends, survival of cultured DU145 cells, MTT, six days after drug treatment, read-out: ED50 (the source's name); for IC50: read-out: concentration needed for 50% growth inhibition (ID50), Table 3, DU-145
Description: as §2, §3, §4

[7] = system: human colon cancer cells HT29; experiment: MTT assay, survival/growth of cultured human colon cancer cells HT29; conditions: for IC50: read-out: concentration needed for 50% growth inhibition (ID50), Table 3, HT-29
Description: as §1, §2, §3

[8] = system: human prostate cancer cells LNCAP; experiment: MTT assay, survival/growth of cultured human prostate cancer cells LNCAP; conditions: Homo sapiens, 144 h, figure legends, survival of cultured LNCAP cells, six days after drug treatment, read-out: ED50 (the source's name)
Description: as §2, §3, §4

[9] = read-out: concentration needed for 50% growth inhibition (ID50)
[10] = figure legends, survival of cultured DUPRO cells, MTT, six days after drug treatment, read-out: ED50 (the source's name)
[11] = read-out: concentration needed for 50% growth inhibition (ID50), Table 3, DUPRO
[12] = Homo sapiens, U-251, read-out: concentration needed for 50% growth inhibition (ID50)
[13] = Homo sapiens, 144 h, figure legends, survival of cultured DUPRO cells, MTT, six days after drug treatment, read-out: ED50 (the source's name)
[14] = Homo sapiens, read-out: concentration needed for 50% growth inhibition (ID50), Table 3, DUPRO

CCNCCCCNC/C=C\CNCCCCNCC [SL-11102]
concentration needed for 50% growth inhibition (ID50) [1]: 12400 nM | EC50 [1]: 150 nM | EC50 [2]: > 31200 nM | IC50 [2]: > 31200 nM | EC50 [3]: 150 nM | IC50 [3, 9]: 150 nM | EC50 [4, 10]: 150 nM | IC50 [4, 11]: 150 nM | IC50 [5]: > 31200 nM | EC50 [6]: 30 nM | IC50 [6]: 27 nM | IC50 [7]: 730 nM

CCNCCCCNCC#CCNCCCCNCC [SL-11103]
EC50 ([1]; Homo sapiens, 144 h): 12400 nM | IC50 ([1]; Homo sapiens): > 31200 nM | EC50 ([2]; Homo sapiens, PC-3, 144 h): > 31200 nM | IC50 ([2]; Homo sapiens): > 31200 nM | EC50 ([3]; Homo sapiens, U-251, 144 h): 9500 nM | IC50 [3, 12]: 9500 nM | EC50 ([5]; Homo sapiens, 144 h): > 31200 nM | IC50 ([5]; Homo sapiens): > 31200 nM | EC50 ([6]; Homo sapiens, DU-145, 144 h): 2800 nM | IC50 ([6]; Homo sapiens): 2800 nM | IC50 ([7]; Homo sapiens): 29400 nM

CCNC/C=C\CNC/C=C\CNCCCCNC/C=C\CNCC [SL-11129]
EC50 ([2]; Homo sapiens, PC-3, 144 h): 1700 nM | IC50 ([2]; Homo sapiens): 1700 nM | IC50 [4, 13]: > 31200 nM | EC50 ([6]; Homo sapiens, DU-145, 144 h): 320 nM

CCNC/C=C\CNC/C=C\CNCCCCNCC [SL-11119]
IC50 [2]: > 31200 nM | EC50 [4, 10]: 440 nM | IC50 [4, 11]: 440 nM | EC50 [6]: 80 nM | IC50 [6]: 80 nM | IC50 [7]: 970 nM

CCNCCCNCCCCNCCCNCC [BE-343, N1,N12-bis(ethyl) spermine, reference compound]
EC50 [1]: 200 nM | EC50 [2]: 240 nM | EC50 [3]: 140 nM | EC50 [5]: 500 nM | EC50 [6]: 44 nM | EC50 ([7]; figure legends, survival of cultured HT29 cells, MTT, six days after drug treatment, read-out: ED50 (the source's name)): 600 nM

CCNCCCCNCc1ccccc1CNCCCCNCC [SL-11104]
concentration needed for 50% growth inhibition (ID50) [1]: 430 nM | IC50 [2]: > 31200 nM | EC50 [3]: 14700 nM | IC50 [3, 9]: 14700 nM | IC50 [5]: > 31200 nM | EC50 [6]: 9400 nM | IC50 [6]: 9400 nM | IC50 [7]: 25800 nM

CCNCCCCNCCCCNCCCCNCCCCNC/C=C\CNCCCCNCCCCNCCCCNCCCCNCC [SL-11150]
EC50 [4, 13]: 480 nM | EC50 ([6]; Homo sapiens, DU-145, 144 h): 110 nM | EC50 [8]: 230 nM

CCNCCCCNC/C=C\CNCCCCNCCCCNCC [SL-11122]
EC50 ([1]; Homo sapiens, 144 h): > 31200 nM | IC50 ([1]; Homo sapiens): > 31200 nM | EC50 ([2]; Homo sapiens, PC-3, 144 h): > 31200 nM | IC50 ([2]; Homo sapiens): > 31200 nM | EC50 [4, 13]: 560 nM | IC50 [4, 14]: 560 nM | EC50 ([5]; Homo sapiens, 144 h): > 31200 nM | IC50 ([5]; Homo sapiens): > 31200 nM | EC50 ([6]; Homo sapiens, DU-145, 144 h): 80 nM | IC50 ([6]; Homo sapiens): 800 nM | IC50 ([7]; Homo sapiens): 800 nM

CCNCCCCNC/C=C/CNCCCCNCC [SL-11101]
EC50 ([1]; Homo sapiens, 144 h): 2200 nM | IC50 ([1]; Homo sapiens): 150 nM | EC50 ([2]; Homo sapiens, PC-3, 144 h): 7700 nM | IC50 ([2]; Homo sapiens): 7700 nM | EC50 ([3]; Homo sapiens, U-251, 144 h): 1700 nM | IC50 [3, 12]: 1700 nM | EC50 [4, 13]: 850 nM | IC50 [4, 14]: 850 nM | EC50 ([5]; Homo sapiens, 144 h): > 31200 nM | IC50 ([5]; Homo sapiens): > 31200 nM | EC50 ([6]; Homo sapiens, DU-145, 144 h): 220 nM | IC50 ([6]; Homo sapiens): 218 nM | IC50 ([7]; Homo sapiens): 5200 nM

CCNC/C=C\CNC/C=C\CNCCCCNCCCCNCC [SL-11127]
EC50 ([2]; Homo sapiens, PC-3, 144 h): > 31200 nM | IC50 ([2]; Homo sapiens): > 31200 nM | EC50 [4, 13]: 1300 nM | IC50 [4, 14]: 1300 nM | EC50 ([6]; Homo sapiens, DU-145, 144 h): 220 nM | IC50 ([6]; Homo sapiens): 220 nM | IC50 ([7]; Homo sapiens): 2910 nM

CCNC/C=C\CNCCCCNC/C=C\CNCCCCNCC [SL-11133]
EC50 ([2]; Homo sapiens, PC-3, 144 h): > 31200 nM | IC50 [4, 13]: 31200 nM | EC50 ([6]; Homo sapiens, DU-145, 144 h): 340 nM
